Molecular target: T1, HsOMT (Hpm5) (Hypomyces subiculosus, UniProt B3FWS1)
T1 sequence (B3FWS1 1-398): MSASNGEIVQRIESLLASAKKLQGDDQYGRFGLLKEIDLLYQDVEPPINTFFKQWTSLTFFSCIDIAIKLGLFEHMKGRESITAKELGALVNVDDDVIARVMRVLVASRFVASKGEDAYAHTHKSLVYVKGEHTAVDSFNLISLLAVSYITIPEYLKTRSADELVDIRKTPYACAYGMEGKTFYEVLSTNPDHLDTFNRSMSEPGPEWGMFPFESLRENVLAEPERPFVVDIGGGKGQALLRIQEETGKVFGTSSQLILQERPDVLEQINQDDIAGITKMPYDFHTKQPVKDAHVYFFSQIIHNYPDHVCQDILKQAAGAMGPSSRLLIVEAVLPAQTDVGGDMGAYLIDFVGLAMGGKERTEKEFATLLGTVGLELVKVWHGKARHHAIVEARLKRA
Assay: biocatalytic O-methylation in S. cerevisiae expressing HsOMT, LC-MS
Type: cell-based
Conditions: native substrate; OH-5 (para) methylation to 5-O-methyl-DHZ

In the case of C[C@H]1C/C=C/[C@@H](O)CCC/C=C/c2cc(O)cc(O)c2C(=O)O1 [compound 3, DHZ], the “biocatalytic O-methylation in S. cerevisiae expressing HsOMT, LC-MS” value is reported as “methylates the C-5 phenolic hydroxyl of the RAL14”.
